Measurements: patent US6525057B2, “Sustained release ranolazine formulations” (CV Therapeutics, Inc., priority 1998, dated 2003)
Where two headings read alike, the source gives them in different places.

Tests used:
[1] = Example 8: Day 5 pharmacokinetics of racemic ranolazine and enantiomers, SR 1500 and 2000 mg bid; format: in vivo, human; conditions: for Tmax / Cmax / AUC: male, human, plasma, oral; for AUC: read-out: AUC96-108h; for differences in the pharmacokinetic parameters of the enantiomers: multiple dosing with the SR formulation
Protocol: This Example evaluated the safety and tolerability of administering racemic ranolazine free base formulations as in Example 2D. The individual and mean concentrations of racemic ranolazine and its enantiomers, (R)-(+)-N-(2,6-dimethylphenyl)-4-[2-hydroxy-3-(2-methoxyphenoxy)-propyl]-1-piperazineacetamide, (S)-(−)-N-(2,6-dimethylphenyl)-4-[2-hydroxy-3-(2-methoxyphenoxy)-propyl]-1-piperazineacetamide in human plasma were also determined.
(§1) The study was performed with ascending doses of sustained release ranolazine dosage forms. Before and at intervals during and after the dosing period, blood samples were drawn for ranolazine assay and blood pressure, heart rate, ECG and symptoms were monitored throughout. Data summaries were reviewed after each phase before proceeding to the next phase of the study.
(§2) Eight subjects, all healthy male volunteers aged between 18 and 40 entered and all completed the study and were available for pharmacokinetic and safety analysis. The subjects were each given doses of the various types of ranolazine free base in the form of sustained release tablets including 500 mg and 750 mg tablets or with matching placebo as necessary (2×750 mg size plus 1×500 mg size) to make unit oral doses of 1500 and 2000 mg.
(§3) In each phase: one dose bid for four days with a single dose on Day 5. On day 5 each volunteer underwent a full pharmacokinetic profile including supine and erect blood pressure (BP) and heart rate, ECG data, adverse events, clinical chemistry and hematology results, urinalysis results.
(§4) These tests were made using two-sided t-tests with estimates of variability from the ANOVA models. Steady state was also assessed by comparing means for C48h, C72h and C96h using a mixed effects ANOVA model and untransformed and log, transformed data. For hemodynamic parameters, Day 1 pre-dose treatment means and Day 5 data were compared across treatments via two-sided t-tests using estimates of variability from mixed effects ANOVA models. Ninety and 95% confidence intervals were calculated for the treatment comparisons. No adjustments were made for multiple comparisons.

[2] = Solubility of ranolazine in aqueous solutions by pH; format: physicochemical
[3] = test system: patients with chronic stable angina pectoris; assay: Example 4: exercise treadmill test (ETT) at peak and trough, IR regimens; format: in vivo, human; conditions: Peak, all patients, 267 mg tid IR ranolazine .2HCl
Protocol: In this Example, the safety and anti-ischemic effects of high plasma ranolazine levels in a large group of angina patients was evaluated and the duration of any effects during steady-state dosing with bid and tid regimens was assessed. In this Example, patients with chronic stable angina pectoris who were responsive to conventional antianginal drugs were treated with 3 ranolazine .2HCl dosing regimens: 267 mg tid, 400 mg bid and 400 mg tid IR Formulations of Example 1. Exercise testing parameters and ranolazine free base concentrations were determined at peak and trough plasma levels.
The study involved double-blind, placebo-controlled randomized treatment phase with 4 treatments (placebo, ranolazine .2HCl 400 mg bid, ranolazine .2HCl 267 mg tid, and ranolazine .2HCl 400 mg tid), 4 treatment sequences and 5 double-blind treatment periods in an extended period Latin square design on pre-qualified patients who were responsive to known antianginal therapy and had stable exercise times.
Human patients with chronic stable angina pectoris, of at least 3 months' duration, that had responded to conventional antianginal therapy were considered candidates. […]

[4] = test system: patients with chronic stable angina pectoris; assay: Example 4: safety, hemodynamics and tolerability; format: in vivo, human
Protocol: After each 1 week period, patients returned to the exercise laboratory in the morning, at least 1 hour after a light breakfast, for an ETT. This was designated the trough ETT; the trough ETTs were performed at the same time of day for each patient. After completing the trough ETT, the patient received the next scheduled blinded medication dose from the blister pack used that week. Another ETT was performed 1 hour after the administered dose. This was designated the peak ETT. Blood samples were obtained at trough (approximately 8 hours after dosing) and at peak (1 hour after dosing). Other standard laboratory tests were monitored regularly throughout the study.
Blood pressure (by cuff) and heart rate were monitored before all ETTs, during the ETT, during the last minute of each stage of the test, at onset angina, at the point of maximum exercise, and during recovery (every minute for 4 minutes, then every 5 minutes until values returned to baseline). Heart rates also was monitored continuously and standard 12-lead ECG recordings were done immediately before exercise with the patient standing on the treadmill, at the end of each stage of exercise, at the maximally tolerated exercise load, and at the termination of exercise.

[5] = test system: patients with stable angina pectoris; conditions: cited from earlier work; for increase in total exercise duration (±SEM) compared with baseline: after 4 weeks, 1 hour after medication (peak effect), P=NS vs placebo
[6] = test system: healthy male volunteers; assay: Example 8: safety and tolerability of SR 1500 and 2000 mg bid; format: in vivo, human; conditions: for subjects too symptomatic on standing to complete BP measurements: usually 2-6 hours post-dose; for reduction in orthostatic systolic BP: statistically significant
Protocol: as §1, §2, §3, §4

[7] = cited from earlier work; for mean peak plasma concentration of ranolazine free base: 1 hour after dose; for mean trough plasma concentration: 8 hours after dose
[8] = Day 5, 1500 mg SR bid (racemic, Example 2D)
[9] = 1500 mg, Day 5, 1500 mg SR bid (racemic, Example 2D), read-out: Median tmax
[10] = Day 5, 2000 mg SR bid (racemic, Example 2D)

## COc1ccccc1OC[C@@H](O)CN1CCN(CC(=O)Nc2c(C)cccc2C)CC1 [(−)S ranolazine, (S)-(−)-N-(2,6-dimethylphenyl)-4-[2-hydroxy-3-(2-methoxyphenoxy)-propyl]-1-piperazineacetamide]
[1]; [8]
  Cave: 2201 ± 1237 ng/mL
  Cmin: 1514 ± 1201 ng/mL
  Degree of fluctuation: 0.824
  Cmax: 2940 ± 1430 ng/mL
  AUC: 26400 ng·h/mL
[1]; [9]
  Tmax: 4 h
[1]
  differences in the pharmacokinetic parameters of the enantiomers: no differences

## COc1ccccc1OCC(O)CN1CCN(CC(=O)Nc2c(C)cccc2C)CC1 (racemic) [ranolazine, (±)-N-(2,6-dimethylphenyl)-4-[2-hydroxy-3-(2-methoxyphenoxy)-propyl]-1-piperazineacetamide]
[2]; Solution pH 4.81
  USP Solubility Class: Freely soluble
[2]; Solution pH 4.89
  USP Solubility Class: Soluble
[2]; Solution pH 4.90
  USP Solubility Class: Soluble
[2]; Solution pH 5.04
  USP Solubility Class: Soluble
[2]; Solution pH 5.35
  USP Solubility Class: Sparingly soluble
[2]; Solution pH 5.82
  USP Solubility Class: Slightly soluble
[2]; Solution pH 6.46
  USP Solubility Class: Slightly soluble
[2]; Solution pH 6.73
  USP Solubility Class: Very slightly soluble
[2]; Solution pH 7.08
  USP Solubility Class: Very slightly soluble
[2]; Solution pH 7.59 (unbuffered water)
  USP Solubility Class: Very slightly soluble
[2]; Solution pH 7.73
  USP Solubility Class: Very slightly soluble
[2]; Solution pH 12.66
  USP Solubility Class: Very slightly soluble
[3]
  Mean time to onset angina: 9.40 min
[1]; [8]
  Cave: 4126 ± 1995 ng/mL
  Cmin: 2932 ± 1918 ng/mL
  Degree of fluctuation: 0.664
  Cmax: 5280 ± 2430 ng/mL
  AUC: 49500 ng·h/mL
[1]; [10]
  Cave: 5705 ± 2153 ng/mL
  Cmin: 4149 ± 2228 ng/mL
  Degree of fluctuation: 0.591
  Cmax: 7280 ± 2700 ng/mL
  AUC: 68500 ng·h/mL
[1]; SR bid dosing
  Steady-state plasma levels of ranolazine free base attained by: ≤ 4 days
[1]; [9]
  Tmax: 4 h
[1]; 2000 mg, Day 5, 2000 mg SR bid (racemic, Example 2D), read-out: Median tmax
  Tmax: 4 h
[1]; 2000 mg, within the dose interval, SR 1500 and 2000 mg bid, read-out: tmax values post-dose
  Tmax: 1 to 6 h
[4]; 3 IR dosing regimens
  ECG intervals or complex morphology: no drug-related changes
  blood glucose concentrations, lipid values or liver function tests: no clinically significant changes
[4]; over the plasma concentrations achieved in the study
  tolerability: well tolerated
[4]; peak ranolazine plasma concentrations
  blood pressure or heart rate: not associated with changes in blood pressure or heart rate
[4]; peak ranolazine plasma concentrations, any dosing regimen
  double product versus placebo: no statistically significant differences
[4]; trough ranolazine plasma concentrations, per-protocol analysis, 3 dosing regimens
  standing or maximum exercise double product versus placebo: no statistically significant differences
[5]; 30 mg tid
  increase in total exercise duration (±SEM) compared with baseline: 0.3 ± 0.2 min
[5]; 60 mg tid
  increase in total exercise duration (±SEM) compared with baseline: 0.6 ± 0.2 min
[5]; 120 mg tid
  increase in total exercise duration (±SEM) compared with baseline: 0.5 ± 0.2 min
[6]; 1500 mg SR bid
  subjects too symptomatic on standing to complete BP measurements: 3 of 8
[6]; 2000 mg SR bid
  subjects too symptomatic on standing to complete BP measurements: 2 of 8
[6]; SR 1500 and 2000 mg bid versus placebo
  adverse events: headache, dizziness and blocked nose seemed more common on ranolazine
[6]; day 5, 1500 mg SR bid, 4 hours post-dose
  reduction in orthostatic systolic BP: −9.8 mm Hg
[6]; day 5, 2000 mg SR bid, 6 hours post-dose
  reduction in orthostatic systolic BP: −8.4 mmHg

## COc1ccccc1OC[C@H](O)CN1CCN(CC(=O)Nc2c(C)cccc2C)CC1 [(+)R ranolazine, (R)-(+)-N-(2,6-dimethylphenyl)-4-[2-hydroxy-3-(2-methoxyphenoxy)-propyl]-1-piperazineacetamide]
[1]; [8]
  Cave: 2144 ± 1115 ng/mL
  Cmin: 1436 ± 1046 ng/mL
  Degree of fluctuation: 0.833
  Cmax: 2910 ± 1310 ng/mL
  AUC: 25700 ng·h/mL
[1]; [9]
  Tmax: 4 h
[1]
  differences in the pharmacokinetic parameters of the enantiomers: no differences

## COc1ccccc1OCC(O)CN1CCN(CC(=O)Nc2c(C)cccc2C)CC1 (centres unmarked) [ranolazine .2HCl]
[7]; 30 mg tid IR
  mean peak plasma concentration of ranolazine free base: 94 ng/mL
  mean trough plasma concentration: 18 ng/mL
[7]; 60 mg tid IR
  mean peak plasma concentration of ranolazine free base: 219 ng/mL
  mean trough plasma concentration: 37 ng/mL
[7]; 120 mg tid IR
  mean peak plasma concentration of ranolazine free base: 510 ng/mL
  mean trough plasma concentration: 90 ng/mL
[5]; 30, 60 and 120 mg tid
  therapy compared with placebo: not superior to placebo
